Where a name gives a salt, the structure may show the parent alone. Read-outs that look alike come from different tables or passages of the source.
What was measured:
human VEGFR2 = human VEGFR2 (Homo sapiens (Human), UniProt P35968); assay: 33P isotope-labeled kinase activity test (Reaction Biology Corp), VEGFR2; assay type: biochemical; details: ATP 10 μM
Procedure: (§1) The IC50 value was determined using ^33P isotope-labeled kinase activity test (Reaction Biology Corp) to evaluate the inhibitory ability of the compounds to be tested on human FGFR1, FGFR2 and VEGFR2.
(§2) Buffer conditions: 20 mM Hepes (pH 7.5), 10 mM MgCl2, 1 mM EGTA, 0.02% Brij35, 0.02 mg/mL BSA, 0.1 mM Na3VO4, 2 mM DTT, 1% DMSO.
(§3) Test steps: At room temperature, the compounds to be tested were dissolved in DMSO to prepare a 10 mM solution for use. The substrate was dissolved in the newly-prepared buffer, and the kinase to be tested was added thereto and mixed well. The DMSO solution in which the compounds to be tested were dissolved was added to the above-mentioned homogeneous reaction mixture using acoustic technology (Echo 550). […] After incubating for 15 minutes, ^33P-ATP (activity: 0.01 μCi/μL, with corresponding concentration listed in Table 4) was added to the reaction mixture to start the reaction. […] The kinase activity data was expressed by comparing the kinase activity of the groups containing the compounds to be tested with that of the blank group (containing only DMSO).

human FGFR2 = human FGFR2 (Homo sapiens (Human), UniProt P21802); assay: 33P isotope-labeled kinase activity test (Reaction Biology Corp), FGFR2; assay type: biochemical; details: ATP 5 μM
Procedure: as §1, §2, §3

human FGFR1 = human FGFR1 (Homo sapiens (Human), UniProt P11362); assay: 33P isotope-labeled kinase activity test (Reaction Biology Corp), FGFR1; assay type: biochemical; details: ATP 5 μM
Procedure: as §1, §2, §3

[1] = Evaluation of the pharmacokinetics in female Balb/c mice (IV and PO); assay type: in vivo; details: for Tlast / AUC(0-inf) / AUC(0-t) / clearance / half-life / MRT last / Vd / bioavailability / Tmax / C0 / Cmax: female Balb/c mice; for AUC(0-inf) / AUC(0-t) / clearance / half-life / MRT last / Vd / bioavailability / Tmax / C0 / Cmax: mouse, plasma; for MRT last: read-out: MRT0-last; for Vd: read-out: Vdss; for bioavailability: read-out: F (bioavailability)
Procedure: […] […] About 30 μL blood samples were collected from the jugular vein at 0.0833, 0.25, 0.5, 1.0, 2.0, 4.0, 8.0, 24 h after administration and from the tail vein at 0.25, 0.5, 1.0, 2.0, 4.0, 8.0, 24 h after administration, and the blood samples were put in an anticoagulation tube containing EDTA-K2, the plasma was separated by centrifugation. The LC-MS/MS method was used to determine the blood drug concentration, the WinNonlin™ Version 6.3 (Pharsight, Mountain View, CA) pharmacokinetic software was used to calculate the relevant pharmacokinetic parameters by the non-compartmental model linear logarithmic ladder method.

[2] = system: human gastric cancer SNU-16; assay: Anti-tumor activity in mouse subcutaneous xenograft tumor model of human gastric cancer SNU-16; assay type: in vivo, nude mice; details: PO 10/20/40 mg/kg QD (20 mg/kg from day 8, 40 mg/kg from day 17)
Procedure: To study the anti-tumor effect of the compounds of the present disclosure in a mouse subcutaneous xenograft tumor model of human gastric cancer SNU-16.
Preparation of tumor tissues: SNU-16 cells were routinely cultured in an RPMI-1640 culture medium containing 10% fetal bovine serum under the conditions of 5% CO2, 37° C. and saturated humidity. According to cell growth, the cells were passaged or refilled 1 to 2 times a week with a passage ratio of 1:3 to 1:4.
SNU-16 cells at the logarithmic growth phase were collected, counted and then resuspended in a 50% serum-free RPMI-1640 culture medium and 50% Matrigel, and cell concentration was adjusted to 4×10^7 cells/mL; the cells were placed in an ice box, and the cell suspension was suctioned with a 1 mL syringe, and subcutaneously injected into the anterior right axillary of nude mice, each animal was inoculated with 200 μL (8×10^6 cells/mouse) to establish a SNU-16 xenograft model. The animal status was observed regularly, and the tumor diameter was measured with an electronic vernier caliper. […]
3) The tumor diameter was measured twice a week to calculate the tumor volume, and the animal body weight was weighed and recorded. […]
The anti-tumor efficacy of the compounds was evaluated by TGI (%) or relative tumor proliferation rate T/C (%). […] The relative tumor volume (RTV) was calculated according to the results of the tumor measurement. […]

Sequence of human FGFR1 (P11362 22-822): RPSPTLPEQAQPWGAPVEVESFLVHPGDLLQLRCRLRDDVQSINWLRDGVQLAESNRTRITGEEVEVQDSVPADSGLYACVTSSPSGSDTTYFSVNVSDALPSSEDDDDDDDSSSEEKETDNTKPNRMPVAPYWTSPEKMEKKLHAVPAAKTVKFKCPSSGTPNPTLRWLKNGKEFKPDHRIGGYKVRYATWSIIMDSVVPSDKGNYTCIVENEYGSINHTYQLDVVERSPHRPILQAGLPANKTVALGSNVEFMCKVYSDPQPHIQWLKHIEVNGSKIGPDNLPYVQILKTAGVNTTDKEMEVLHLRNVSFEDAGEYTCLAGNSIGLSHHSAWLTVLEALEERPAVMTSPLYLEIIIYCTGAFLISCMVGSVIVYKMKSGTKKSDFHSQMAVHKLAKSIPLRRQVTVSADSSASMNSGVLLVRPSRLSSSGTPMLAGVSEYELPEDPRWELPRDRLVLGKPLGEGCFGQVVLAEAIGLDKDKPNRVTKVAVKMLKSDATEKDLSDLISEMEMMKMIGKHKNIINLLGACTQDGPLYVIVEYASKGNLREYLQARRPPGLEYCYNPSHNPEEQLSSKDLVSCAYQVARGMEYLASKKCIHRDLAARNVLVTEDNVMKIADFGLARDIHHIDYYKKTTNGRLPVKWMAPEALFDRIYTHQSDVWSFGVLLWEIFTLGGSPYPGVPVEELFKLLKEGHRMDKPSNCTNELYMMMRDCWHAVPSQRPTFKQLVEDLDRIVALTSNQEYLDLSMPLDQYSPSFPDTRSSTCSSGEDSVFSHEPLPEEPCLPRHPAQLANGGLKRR
Sequence of human VEGFR2 (P35968 20-1356): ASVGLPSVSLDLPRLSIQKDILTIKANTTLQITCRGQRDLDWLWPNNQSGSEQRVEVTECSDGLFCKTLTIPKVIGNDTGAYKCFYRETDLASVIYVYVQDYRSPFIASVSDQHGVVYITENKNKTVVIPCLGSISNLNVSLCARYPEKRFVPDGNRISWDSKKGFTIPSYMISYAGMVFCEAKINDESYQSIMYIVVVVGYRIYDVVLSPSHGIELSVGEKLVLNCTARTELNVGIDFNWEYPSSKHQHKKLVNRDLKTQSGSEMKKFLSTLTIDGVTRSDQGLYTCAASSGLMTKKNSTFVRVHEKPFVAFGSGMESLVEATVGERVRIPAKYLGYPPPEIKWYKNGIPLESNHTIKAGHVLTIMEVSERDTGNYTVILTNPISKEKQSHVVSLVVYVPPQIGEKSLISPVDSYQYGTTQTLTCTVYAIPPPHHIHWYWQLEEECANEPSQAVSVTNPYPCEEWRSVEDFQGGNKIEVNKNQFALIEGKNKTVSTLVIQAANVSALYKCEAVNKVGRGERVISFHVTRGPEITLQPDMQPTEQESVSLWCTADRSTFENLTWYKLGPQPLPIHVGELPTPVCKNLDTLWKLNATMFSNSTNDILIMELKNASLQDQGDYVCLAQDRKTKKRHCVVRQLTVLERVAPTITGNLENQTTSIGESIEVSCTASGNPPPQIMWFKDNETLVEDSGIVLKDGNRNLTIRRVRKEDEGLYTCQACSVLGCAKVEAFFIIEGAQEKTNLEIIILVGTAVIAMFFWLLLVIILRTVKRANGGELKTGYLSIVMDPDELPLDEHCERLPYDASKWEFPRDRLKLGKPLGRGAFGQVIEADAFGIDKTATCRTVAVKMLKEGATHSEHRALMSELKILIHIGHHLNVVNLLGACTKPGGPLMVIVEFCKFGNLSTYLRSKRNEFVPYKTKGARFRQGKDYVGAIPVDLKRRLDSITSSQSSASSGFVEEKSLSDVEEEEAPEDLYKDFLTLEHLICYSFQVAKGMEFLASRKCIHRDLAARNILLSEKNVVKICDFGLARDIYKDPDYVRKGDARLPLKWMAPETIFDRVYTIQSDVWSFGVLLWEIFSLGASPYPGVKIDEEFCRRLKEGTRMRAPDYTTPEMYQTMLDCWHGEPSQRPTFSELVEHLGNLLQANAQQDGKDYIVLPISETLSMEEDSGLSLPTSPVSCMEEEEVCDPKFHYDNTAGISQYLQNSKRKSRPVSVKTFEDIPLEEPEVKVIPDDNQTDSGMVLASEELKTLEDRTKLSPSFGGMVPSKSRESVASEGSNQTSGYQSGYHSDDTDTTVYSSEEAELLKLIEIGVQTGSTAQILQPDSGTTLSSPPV
Sequence of human FGFR2 (P21802 22-821): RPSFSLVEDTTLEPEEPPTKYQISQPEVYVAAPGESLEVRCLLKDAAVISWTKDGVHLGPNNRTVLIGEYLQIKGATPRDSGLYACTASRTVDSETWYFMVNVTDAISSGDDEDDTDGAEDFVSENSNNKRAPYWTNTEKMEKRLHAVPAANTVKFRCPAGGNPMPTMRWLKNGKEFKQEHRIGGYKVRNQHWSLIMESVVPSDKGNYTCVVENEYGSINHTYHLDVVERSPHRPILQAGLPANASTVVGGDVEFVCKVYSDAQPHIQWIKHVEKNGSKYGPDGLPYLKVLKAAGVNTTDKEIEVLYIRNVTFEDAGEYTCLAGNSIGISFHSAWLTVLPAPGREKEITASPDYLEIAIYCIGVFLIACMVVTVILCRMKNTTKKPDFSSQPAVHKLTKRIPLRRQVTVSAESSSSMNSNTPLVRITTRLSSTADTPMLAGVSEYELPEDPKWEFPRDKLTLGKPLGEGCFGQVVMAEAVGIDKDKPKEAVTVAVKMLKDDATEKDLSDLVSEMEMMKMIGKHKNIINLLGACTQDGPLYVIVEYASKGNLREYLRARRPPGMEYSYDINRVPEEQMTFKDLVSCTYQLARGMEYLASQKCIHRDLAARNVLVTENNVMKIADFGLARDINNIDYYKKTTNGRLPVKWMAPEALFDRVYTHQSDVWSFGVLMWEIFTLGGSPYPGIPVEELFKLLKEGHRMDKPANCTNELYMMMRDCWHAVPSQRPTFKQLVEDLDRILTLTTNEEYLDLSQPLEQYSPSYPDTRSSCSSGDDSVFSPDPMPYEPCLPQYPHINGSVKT

Compound: CCOC(=O)Nc1cc(-c2cnc3cc(-c4cnn(C)c4)ccn23)cc(-c2ccc(F)cc2C)n1 [Trifluoroacetate salt of compound 4]
- IC50 (human VEGFR2): 24.3 nM
- IC50 (human FGFR2): 45.2 nM

Compound: Cn1cc(-c2ccn3c(-c4cc(NC5CCOCC5)nc(-c5ccc(F)cc5F)c4)cnc3c2)cn1 [Compound 10]
- IC50 (human FGFR2): 17.1 nM

Compound: CCOC(=O)Nc1cc(-c2cnc3cc(-c4cnn(C)c4)ccn23)cc(-c2ccc(F)cc2F)n1 [Trifluoroacetate salt of compound 3]
- IC50 (human VEGFR2): 1.99 nM
- IC50 (human FGFR2): 3.26 nM

Compound: Cc1c(-c2ccn3c(-c4cc(NS(C)(=O)=O)nc(-c5ccc(F)cc5F)c4)cnc3c2)cnn1C [Trifluoroacetate salt of compound 13]
- IC50 (human VEGFR2): 11.1 nM

Compound: Cn1cc(-c2ccn3c(-c4cc(NCC5COC(C)(C)O5)nc(-c5ccc(F)cc5F)c4)cnc3c2)cn1 (stereo not drawn) [Compound 11]
- IC50 (human VEGFR2): 7.57 nM
- IC50 (human FGFR2): 2.27 nM

Compound: Cn1cc(-c2ccn3c(-c4cc(NCC(C)(C)O)nc(-c5ccc(F)cc5F)c4)cnc3c2)cn1 [Compound 9]
- IC50 (human VEGFR2): 3.73 nM
- IC50 (human FGFR2): 4.92 nM

Compound: Cn1cc(-c2ccn3c(-c4cc(NS(=O)(=O)C5CC5)nc(-c5ccc(F)cc5F)c4)cnc3c2)cn1 [Trifluoroacetate salt of compound 1]
- IC50 (human FGFR1): 4.55 nM
- IC50 (human VEGFR2): 3.82 nM
- Tlast ([1]; IV 2 mg/kg): 8.00 h
- AUC of intravenous drug exposure compared with the trifluoroacetate of control compound A ([1]; IV, mice): doubled
- plasma clearance rate compared with the trifluoroacetate of control compound A ([1]; IV, mice): nearly decreased the plasma clearance rate by 1 time
- Tlast ([1]; PO 10 mg/kg): 8.00 h
- oral absorption drug exposure compared with the trifluoroacetate of control compound A ([1]; PO, mice): nearly doubled
- AUC(0-inf) ([1]; IV 2 mg/kg): 13.7 µM·h
- AUC(0-t) ([1]; IV 2 mg/kg): 13.3 µM·h
- clearance ([1]; IV 2 mg/kg): 4.82 mL/min/kg
- half-life ([1]; IV 2 mg/kg): 1.6 h
- MRT last ([1]; IV 2 mg/kg): 2.07 h
- Vd ([1]; IV 2 mg/kg): 0.667 L/kg
- bioavailability ([1]; PO 10 mg/kg vs IV 2 mg/kg): 39.4%
- AUC(0-inf) ([1]; PO 10 mg/kg): 26.9 µM·h
- AUC(0-t) ([1]; PO 10 mg/kg): 23.6 µM·h
- Tmax ([1]; PO 10 mg/kg): 1 h
- half-life ([1]; PO 10 mg/kg): 2.5 h
- MRT last ([1]; PO 10 mg/kg): 3.12 h
- C0 ([1]; IV 2 mg/kg): 7530 nM
- Cmax ([1]; PO 10 mg/kg): 5300 nM
- IC50 (human FGFR2): 2.86 nM

Compound: CCS(=O)(=O)Nc1cc(-c2cnc3cc(-c4cnn(C)c4)ccn23)cc(-c2ccc(F)cc2F)n1 [Trifluoroacetate salt of compound 6]
- IC50 (human VEGFR2): 8.09 nM
- IC50 (human FGFR2): 7.36 nM

Compound: Cn1cc(-c2ccn3c(-c4cc(NS(C)(=O)=O)nc(-c5ccc(F)cc5F)c4)cnc3c2)cn1 [Trifluoroacetate salt of compound 7]
- T/C (%) (relative tumor proliferation rate) D25 [2]: 31%
- TGI (%) (tumor growth inhibition rate) D25 [2]: 69%
- IC50 (human VEGFR2): 2.94 nM
- Tlast ([1]; IV 0.2 mg/kg): 4.00 h
- Tlast ([1]; PO 1 mg/kg): 8.00 h
- AUC(0-inf) ([1]; IV 0.2 mg/kg): 0.871 µM·h
- AUC(0-t) ([1]; IV 0.2 mg/kg): 0.81 µM·h
- clearance ([1]; IV 0.2 mg/kg): 7.96 mL/min/kg
- half-life ([1]; IV 0.2 mg/kg): 0.968 h
- MRT last ([1]; IV 0.2 mg/kg): 1.08 h
- Vd ([1]; IV 0.2 mg/kg): 0.661 L/kg
- bioavailability ([1]; PO 1 mg/kg vs IV 0.2 mg/kg): 59.3%
- AUC(0-inf) ([1]; PO 1 mg/kg): 2.58 µM·h
- AUC(0-t) ([1]; PO 1 mg/kg): 2.53 µM·h
- Tmax ([1]; PO 1 mg/kg): 1 h
- half-life ([1]; PO 1 mg/kg): 1.33 h
- MRT last ([1]; PO 1 mg/kg): 2.35 h
- C0 ([1]; IV 0.2 mg/kg): 735 nM
- Cmax ([1]; PO 1 mg/kg): 973 nM
- IC50 (human FGFR2): 3.22 nM

Compound: Cn1cc(-c2ccc3c(c2)ncn3-c2cc(NS(C)(=O)=O)cc(-c3ccc(F)cc3F)c2)cn1 [Trifluoroacetate of compound B, reference compound]
- IC50 (human VEGFR2): 11.8 nM
- IC50 (human FGFR2): 22.6 nM

Compound: Cn1cc(-c2ccn3c(-c4cc(NS(C)(=O)=O)cc(-c5ccc(F)cc5F)n4)cnc3c2)cn1 [Formate of compound C, reference compound]
- IC50 (human FGFR1): 724 nM
- IC50 (human VEGFR2): 5580 nM

Compound: CCCS(=O)(=O)Nc1cc(-c2cnc3cc(-c4cnn(C)c4)ccn23)cc(-c2ccc(F)cc2F)n1 [Trifluoroacetate salt of compound 8]
- IC50 (human VEGFR2): 14.7 nM
- IC50 (human FGFR2): 7.18 nM

Compound: CCOC(=O)Nc1cc(-c2cnc3cc(-c4cnn(C)c4C)ccn23)cc(-c2ccc(F)cc2F)n1 [Trifluoroacetate salt of compound 12]
- IC50 (human VEGFR2): 9.27 nM
- IC50 (human FGFR2): 19.4 nM

Compound: Cc1cc(F)ccc1-c1cc(-c2cnc3cc(-c4cnn(C)c4)ccn23)cc(NS(=O)(=O)C2CC2)n1 [Trifluoroacetate salt of compound 2]
- IC50 (human VEGFR2): 67.3 nM
- IC50 (human FGFR2): 46.1 nM

Compound: Cn1cc(-c2ccc3c(c2)ncn3-c2cc(NS(=O)(=O)C3CC3)cc(-c3ccc(F)cc3F)c2)cn1 [Trifluoroacetate of compound A, reference compound]
- IC50 (human FGFR1): 22.3 nM
- Tlast ([1]; IV 0.2 mg/kg): 4.00 h
- Tlast ([1]; PO 1 mg/kg): 8.00 h
- AUC(0-inf) ([1]; IV 0.2 mg/kg): 0.717 µM·h
- AUC(0-t) ([1]; IV 0.2 mg/kg): 0.663 µM·h
- clearance ([1]; IV 0.2 mg/kg): 9.2 mL/min/kg
- half-life ([1]; IV 0.2 mg/kg): 1.08 h
- MRT last ([1]; IV 0.2 mg/kg): 1.21 h
- Vd ([1]; IV 0.2 mg/kg): 0.85 L/kg
- bioavailability ([1]; PO 1 mg/kg vs IV 0.2 mg/kg): 40.3%
- AUC(0-inf) ([1]; PO 1 mg/kg): 1.44 µM·h
- AUC(0-t) ([1]; PO 1 mg/kg): 1.41 µM·h
- Tmax ([1]; PO 1 mg/kg): 1 h
- half-life ([1]; PO 1 mg/kg): 1.4 h
- MRT last ([1]; PO 1 mg/kg): 2.76 h
- C0 ([1]; IV 0.2 mg/kg): 563 nM
- Cmax ([1]; PO 1 mg/kg): 469 nM
